We go through eight molecules from patent publication US11213579B2, “Vaccines with enhanced immunogenicity, low allergenicity and reactogenicity” (priority 2018, dated 2022).

This experiment concerns P. aeruginosa 6616. The experiment can be described thus: Photodynamic inactivation of Pseudomonas aeruginosa, re-seeding on MHA to control inactivation. Format: cell-based. The settings on record: initial dose 10 lg CFU/ml, 5 min, 500 μV/ml.
Where [1] appears, read: photosensitizer 1 nM/L, 320 nm for flavins, 560 nm for phenothiazines and porphyrins.
Where [2] appears, read: photosensitizer 5 nM/L, 320 nm for flavins, 560 nm for phenothiazines and porphyrins.
The mark [3] stands for this setting: photosensitizer 10 nM/L, 320 nm for flavins, 560 nm for phenothiazines and porphyrins.
Where [4] appears, read: photosensitizer 20 nM/L, 320 nm for flavins, 560 nm for phenothiazines and porphyrins.
Where [5] appears, read: photosensitizer 40 nM/L, 320 nm for flavins, 560 nm for phenothiazines and porphyrins.
[6] abbreviates: photosensitizer 80 nM/L, 320 nm for flavins, 560 nm for phenothiazines and porphyrins.
[7] abbreviates: photosensitizer 160 nM/L, 320 nm for flavins, 560 nm for phenothiazines and porphyrins.
Where [8] appears, read: photosensitizer 320 nM/L, 320 nm for flavins, 560 nm for phenothiazines and porphyrins.
Setting [9] is: photosensitizer 640 nM/L, 320 nm for flavins, 560 nm for phenothiazines and porphyrins.
[10] abbreviates: photosensitizer 1280 nM/L, 320 nm for flavins, 560 nm for phenothiazines and porphyrins.
Where [11] appears, read: wavelength 180 nm, photoinactivator 40 μM/L.
The mark [12] stands for this setting: wavelength 220 nm, photoinactivator 40 μM/L.
Where [13] appears, read: wavelength 260 nm, photoinactivator 40 μM/L.
Setting [14] is: wavelength 320 nm, photoinactivator 40 μM/L.
Where [15] appears, read: wavelength 360 nm, photoinactivator 40 μM/L.
The mark [16] stands for this setting: wavelength 400 nm, photoinactivator 40 μM/L.
Setting [17] is: wavelength 440 nm, photoinactivator 40 μM/L.
Where [18] appears, read: wavelength 480 nm, photoinactivator 40 μM/L.
The mark [19] stands for this setting: wavelength 520 nm, photoinactivator 40 μM/L.
Where [20] appears, read: wavelength 560 nm, photoinactivator 40 μM/L.
[21] abbreviates: wavelength 600 nm, photoinactivator 40 μM/L.
Where [22] appears, read: wavelength 640 nm, photoinactivator 40 μM/L.
Setting [23] is: wavelength 680 nm, photoinactivator 40 μM/L.
[24] abbreviates: wavelength 720 nm, photoinactivator 40 μM/L.

As for `Cc1cc2nc3ccc(N(C)C)cc3[s+]c2cc1N.[Cl-]` [Toluidine Blue], the “lg CFU/ml after treatment” value is, setting by setting: under setting [1], 6 lg CFU/ml; under setting [2], 2 lg CFU/ml; under setting [3], 1 lg CFU/ml; under setting [4], 1 lg CFU/ml; under setting [5], 0 lg CFU/ml; under setting [6], 0 lg CFU/ml. The “lg CFU/ml after treatment” value is on record as 0 lg CFU/ml under setting [7], 0 lg CFU/ml under setting [8], 0 lg CFU/ml under setting [9] and 2 lg CFU/ml under setting [10].

Consider `Cc1cc2nc3c(=O)[nH]c(=O)nc-3n(C[C@H](O)[C@H](O)[C@H](O)COP(=O)(O)O)c2cc1C` [Riboflavin mononucleotide], for which the “lg CFU/ml after treatment” value is, setting by setting: under setting [1], 4 lg CFU/ml; under setting [2], 1 lg CFU/ml; under setting [3], 0 lg CFU/ml; under setting [4], 0 lg CFU/ml; under setting [5], 0 lg CFU/ml; under setting [6], 0 lg CFU/ml. Further, the “lg CFU/ml after treatment” value runs as follows: under setting [7], 0 lg CFU/ml; under setting [8], 0 lg CFU/ml; under setting [9], 0 lg CFU/ml.

Regarding `C=Cc1c(C)c2cc3nc(c4c5[n-]c(cc6nc(cc1[n-]2)C(C)=C6CC)c(C)c5C(=O)[C@@H]4C(=O)OC)[C@@H](CCC(=O)OC/C=C(\C)CCC[C@H](C)CCC[C@H](C)CCCC(C)C)[C@@H]3C.[Mg+2]` [Chlorophyll alpha (on TWEEN-80), Chlorophyll alpha], the “lg CFU/ml after treatment” value is reported as 2 lg CFU/ml under setting [1]; 2 lg CFU/ml under setting [2]; 1 lg CFU/ml under setting [3]; 1 lg CFU/ml under setting [4]; 0 lg CFU/ml under setting [5]; 0 lg CFU/ml under setting [6]. The “lg CFU/ml after treatment” value by setting is: under setting [7], 0 lg CFU/ml; under setting [8], 0 lg CFU/ml; under setting [9], 0 lg CFU/ml; under setting [11], 9 lg CFU/ml; under setting [12], 9 lg CFU/ml; under setting [13], 10 lg CFU/ml. The “lg CFU/ml after treatment” value reads like this: under setting [14], 10 lg CFU/ml; under setting [15], 10 lg CFU/ml; under setting [16], 9 lg CFU/ml; under setting [17], 9 lg CFU/ml; under setting [18], 6 lg CFU/ml; under setting [19], 7 lg CFU/ml. Moreover, the “lg CFU/ml after treatment” value is recorded as 0 lg CFU/ml under setting [20]; 0 lg CFU/ml under setting [21]; 4 lg CFU/ml under setting [22]; 6 lg CFU/ml under setting [23]; 9 lg CFU/ml under setting [24].

As for `Cc1cc(=[N+](C)C)cc2sc3cc(N(C)C)cc(C)c3nc1-2.[Cl-]` [Dimethylmethylene blue], the “lg CFU/ml after treatment” value turned out to be 2 lg CFU/ml under setting [1]; 1 lg CFU/ml under setting [2]; 1 lg CFU/ml under setting [3]; 1 lg CFU/ml under setting [4]; 0 lg CFU/ml under setting [5]; 0 lg CFU/ml under setting [6]. Besides, the “lg CFU/ml after treatment” value was determined as 0 lg CFU/ml under setting [7], 0 lg CFU/ml under setting [8], 0 lg CFU/ml under setting [9] and 1 lg CFU/ml under setting [10].

With Cyanocobalamin, the “lg CFU/ml after treatment” value under setting [1] worked out at 6 lg CFU/ml; the “lg CFU/ml after treatment” value under setting [2] is 5 lg CFU/ml; the “lg CFU/ml after treatment” value under setting [3] came out at 4 lg CFU/ml; the “lg CFU/ml after treatment” value under setting [4] is recorded as 4 lg CFU/ml; the “lg CFU/ml after treatment” value under setting [5] is given as 4 lg CFU/ml; the “lg CFU/ml after treatment” value under setting [6] was determined as 2 lg CFU/ml. Moreover, the “lg CFU/ml after treatment” value reads like this: under setting [7], 3 lg CFU/ml; under setting [8], 2 lg CFU/ml; under setting [9], 0 lg CFU/ml.

`CN(C)c1ccc2nc3ccc(=[N+](C)C)cc-3sc2c1` [Methylene blue]: the “lg CFU/ml after treatment” value is, setting by setting: under setting [1], 6 lg CFU/ml; under setting [2], 2 lg CFU/ml; under setting [3], 1 lg CFU/ml; under setting [4], 1 lg CFU/ml; under setting [5], 0 lg CFU/ml; under setting [6], 0 lg CFU/ml. The “lg CFU/ml after treatment” value reads like this: under setting [7], 0 lg CFU/ml; under setting [8], 0 lg CFU/ml; under setting [9], 0 lg CFU/ml; under setting [10], 2 lg CFU/ml; under setting [11], 10 lg CFU/ml; under setting [12], 9 lg CFU/ml. The “lg CFU/ml after treatment” value turned out to be 8 lg CFU/ml under setting [13]; 9 lg CFU/ml under setting [14]; 9 lg CFU/ml under setting [15]; 9 lg CFU/ml under setting [16]; 9 lg CFU/ml under setting [17]; 7 lg CFU/ml under setting [18]. Further, the “lg CFU/ml after treatment” value under setting [19] is on record as 4 lg CFU/ml; the “lg CFU/ml after treatment” value under setting [20] amounted to 3 lg CFU/ml; the “lg CFU/ml after treatment” value under setting [21] came out at 3 lg CFU/ml; the “lg CFU/ml after treatment” value under setting [22] is given as 0 lg CFU/ml; the “lg CFU/ml after treatment” value under setting [23] amounted to 0 lg CFU/ml; the “lg CFU/ml after treatment” value under setting [24] was determined as 0 lg CFU/ml.

Take `C=CC1=C(C)c2cc3[n-]c(cc4[n-]c(cc5nc(cc1n2)C(C)=C5C=C)c(C)c4CCC(=O)O)c(CCC(=O)O)c3C.[Fe+2]` [Heme]: the “lg CFU/ml after treatment” value was 3 lg CFU/ml under setting [1]; 2 lg CFU/ml under setting [2]; 2 lg CFU/ml under setting [3]; 1 lg CFU/ml under setting [4]; 0 lg CFU/ml under setting [5]; 0 lg CFU/ml under setting [6]. Moreover, the “lg CFU/ml after treatment” value was 0 lg CFU/ml under setting [7], 0 lg CFU/ml under setting [8] and 0 lg CFU/ml under setting [9].

Consider `Cc1cc2nc3c(=O)[nH]c(=O)nc-3n(C[C@H](O)[C@H](O)[C@H](O)COP(=O)(O)OP(=O)(O)OC[C@H]3O[C@@H](n4cnc5c(N)ncnc54)[C@H](O)[C@@H]3O)c2cc1C` [Riboflavin dinucleotide], for which the “lg CFU/ml after treatment” value reads like this: under setting [1], 3 lg CFU/ml; under setting [2], 0 lg CFU/ml; under setting [3], 0 lg CFU/ml; under setting [4], 0 lg CFU/ml; under setting [5], 0 lg CFU/ml; under setting [6], 0 lg CFU/ml. Besides, the “lg CFU/ml after treatment” value runs as follows: under setting [7], 0 lg CFU/ml; under setting [8], 0 lg CFU/ml; under setting [9], 0 lg CFU/ml.
